What was measured:
rat [1] = settings: Combined chronic toxicity/carcinogenicity, sprague dawley, Oral, Feed, dose end: 24 month, group: systemic
dog [2] = settings: Chronic toxicity, beagle, Oral, Capsule, dose end: 52 week, group: systemic
rat [3] = settings: Multigenerational reproductive toxicity study, sprague dawley, Oral, Feed, dose end: 2 generation
rat [4] = settings: Prenatal developmental toxicity study, wistar, Oral, Gavage/Intubation, dose end: 16 GD
rabbit = settings: Prenatal developmental toxicity study, new zealand white, Oral, Gavage/Intubation, dose end: 19 GD
rat [5] = settings: Subchronic oral toxicity in rodents, sprague dawley, Feed, dose end: 90 day, group: systemic
dog [6] = settings: Subchronic oral toxicity in dogs, beagle, Capsule, dose end: 90 day, group: systemic, systemic / clinical chemistry / alanine aminotransferase (alt/sgpt) / alanine aminotransferase (alt/sgpt) + systemic / clinical chemistry / …
rat [7] = settings: Peri- and post-natal toxicity study (Segment III); long evans; Injection; Subcutaneous; dose end: 3 PND; group: developmental; developmental / developmental landmark / vaginal opening / vaginal opening
rat [8] = settings: Carcinogenicity, fischer, Oral, Water, dose end: 103 week, group: systemic
mouse [9] = settings: Prenatal developmental toxicity study, cd1, Oral, Gavage/Intubation, dose end: 15 GD
rat [10] = settings: Multigenerational reproductive toxicity study, sprague dawley, Oral, Water, dose end: 2 generation
mouse [11] = settings: Carcinogenicity, b6c3f1, Oral, Water, dose end: 103 week, group: systemic
[12] = systemic / hematology / platelet / platelet
[13] = systemic / pathology microscopic / adrenal gland / vacuolization + systemic / pathology microscopic / liver / fatty change + systemic / …
[14] = systemic / organ weight / liver / absolute + systemic / clinical chemistry / alanine aminotransferase (alt/sgpt) / alanine aminotransferase…
[15] = group: offspring, systemic / in life observation / body weight / offspring (pup) weight gain + systemic / pathology gross / liver / discolored + systemic / …
[16] = group: parental, systemic / organ weight / liver / nos + systemic / pathology gross / liver / accentuated lobular pattern + systemic / pathology gross / …
[17] = group: reproductive, reproductive / offspring survival early / litter size / litter size
[18] = group: developmental, developmental / developmental malformation / bone / delayed ossification + developmental / developmental malformation / bone / full …
[19] = group: maternal, reproductive / offspring survival early / offspring survival early other / NOS + systemic / in life observation / body weight / body weight …
[20] = group: developmental, systemic / in life observation / body weight / fetal weight
[21] = group: developmental, systemic / in life observation / body weight / fetal weight + developmental / developmental malformation / bone / hole(s)
[22] = group: maternal, systemic / in life observation / body weight / body weight gain + systemic / in life observation / food consumption / food consumption
[23] = systemic / clinical chemistry / aminopyrine-n-demethylase / aminopyrine-n-demethylase
[24] = systemic / in life observation / body weight / body weight + systemic / in life observation / water consumption / water consumption + …
[25] = systemic / pathology microscopic / adrenal gland / pheochromocytoma nos + systemic / pathology microscopic / bone marrow / leukemia + …
[26] = group: developmental, developmental / developmental malformation / mouth / jaw / cleft palate + systemic / in life observation / body weight / fetal weight
[27] = group: maternal, systemic / in life observation / body weight / body weight + systemic / in life observation / body weight / body weight gain + systemic / in…
[28] = group: offspring, developmental / developmental landmark / preputial separation / preputial separation + systemic / in life observation / body weight / …
[29] = group: parental, systemic / in life observation / body weight / body weight + systemic / in life observation / body weight / body weight gain + systemic / in…
[30] = group: parental, systemic / in life observation / clinical signs / red or crusty deposits around eyes, ears, nose, or mouth + systemic / in life observation…
[31] = group: reproductive, reproductive / offspring survival early / dead fetuses / dead fetuses
[32] = systemic / in life observation / body weight / body weight + systemic / in life observation / water consumption / water consumption
[33] = systemic / pathology microscopic / uterus / interstitial stromal tumor + systemic / in life observation / body weight / body weight + …

CCCCC(O)(Cn1cncn1)c1ccc(Cl)cc1Cl (stereo unspecified) [Hexaconazole]
LEL (rat [1]; [12]): 0.47 mg/kg/day
NEL (rat [1]; [12]): < 0.47 mg/kg/day
LOAEL (rat [1]; [13]): 4.7 mg/kg/day
NOAEL (rat [1]; [13]): 0.47 mg/kg/day
NEL (dog [2]; [14]): 2 mg/kg/day
NOAEL (dog [2]; [14]): 2 mg/kg/day
LOAEL (dog [2]; systemic / organ weight / liver / absolute + systemic / pathology microscopic / liver / lipid deposition): 10 mg/kg/day
LEL (dog [2]; systemic / organ weight / liver / absolute + systemic / pathology microscopic / liver / lipid deposition + systemic / clinical chemistry / …): 10 mg/kg/day
LEL (rat [3]; [15]): 50 mg/kg/day
LOAEL (rat [3]; [15]): 50 mg/kg/day
NEL (rat [3]; [15]): 5 mg/kg/day
NOAEL (rat [3]; [15]): 5 mg/kg/day
LOAEL (rat [3]; [16]): 50 mg/kg/day
NEL (rat [3]; [16]): 1 mg/kg/day
NOAEL (rat [3]; [16]): 5 mg/kg/day
LEL (rat [3]; group: parental, systemic / pathology microscopic / liver / fatty change): 5 mg/kg/day
LEL (rat [3]; [17]): 50 mg/kg/day
LOAEL (rat [3]; [17]): 50 mg/kg/day
NEL (rat [3]; [17]): 5 mg/kg/day
NOAEL (rat [3]; [17]): 5 mg/kg/day
LEL (rat [4]; [18]): 2.5 mg/kg/day
LOAEL (rat [4]; [18]): 2.5 mg/kg/day
NEL (rat [4]; [18]): < 2.5 mg/kg/day
NOAEL (rat [4]; [18]): < 2.5 mg/kg/day
LEL (rat [4]; [19]): 250 mg/kg/day
LOAEL (rat [4]; [19]): 250 mg/kg/day
NEL (rat [4]; [19]): 25 mg/kg/day
NOAEL (rat [4]; [19]): 25 mg/kg/day
LEL (rabbit; [20]): 50 mg/kg/day
LOAEL (rabbit; [20]): 50 mg/kg/day
NEL (rabbit; [21]): 25 mg/kg/day
NOAEL (rabbit; [21]): 25 mg/kg/day
LOAEL (rabbit; group: maternal, systemic / in life observation / body weight / body weight gain): 100 mg/kg/day
LEL (rabbit; [22]): 100 mg/kg/day
NEL (rabbit; [22]): 50 mg/kg/day
NOAEL (rabbit; [22]): 50 mg/kg/day
LEL (rat [5]; [23]): 2.5 mg/kg/day
NEL (rat [5]; [23]): < 2.5 mg/kg/day
NOAEL (rat [5]; systemic / pathology microscopic / adrenal gland / vacuolization + systemic / clinical chemistry / alanine aminotransferase (alt/sgpt) / …): 2.5 mg/kg/day
LOAEL (rat [5]; systemic / pathology microscopic / adrenal gland / vacuolization + systemic / pathology microscopic / liver / fatty change): 25 mg/kg/day
LEL (dog [6]): 25 mg/kg/day
LOAEL (dog [6]): 25 mg/kg/day
NEL (dog [6]): 5 mg/kg/day
NOAEL (dog [6]): 5 mg/kg/day

CC#C[C@]1(O)CC[C@H]2[C@@H]3CCC4=CC(=O)CCC4=C3[C@@H](c3ccc(N(C)C)cc3)C[C@@]21C [Mifepristone]
LEL (rat [7]): 200 ppm
LOAEL (rat [7]): > 600 ppm
NEL (rat [7]): < 200 ppm
NOAEL (rat [7]): ≥ 600 ppm

Oc1ccccc1 [Phenol]
LOAEL (rat [8]; [24]): > 250 mg/kg/day
NOAEL (rat [8]; [24]): ≥ 250 mg/kg/day
LEL (rat [8]; [25]): 125 mg/kg/day
NEL (rat [8]; [25]): < 125 mg/kg/day
LEL (mouse [9]; [26]): 280 mg/kg/day
LOAEL (mouse [9]; [26]): > 280 mg/kg/day
NEL (mouse [9]; [26]): 140 mg/kg/day
NOAEL (mouse [9]; [26]): ≥ 280 mg/kg/day
LEL (mouse [9]; [27]): 280 mg/kg/day
LOAEL (mouse [9]; [27]): > 280 mg/kg/day
NEL (mouse [9]; [27]): 140 mg/kg/day
NOAEL (mouse [9]; [27]): ≥ 280 mg/kg/day
LEL (rat [10]; [28]): 318 mg/kg/day
LOAEL (rat [10]; [28]): > 318 mg/kg/day
NEL (rat [10]; [28]): 69.8 mg/kg/day
NOAEL (rat [10]; [28]): ≥ 318 mg/kg/day
LOAEL (rat [10]; [29]): > 301 mg/kg/day
NOAEL (rat [10]; [29]): ≥ 301 mg/kg/day
LEL (rat [10]; [30]): 13.5 mg/kg/day
NEL (rat [10]; [30]): < 13.5 mg/kg/day
LEL (rat [10]; [31]): 318 mg/kg/day
LOAEL (rat [10]; [31]): > 318 mg/kg/day
NEL (rat [10]; [31]): 69.8 mg/kg/day
NOAEL (rat [10]; [31]): ≥ 318 mg/kg/day
LEL (mouse [11]; [32]): 375 mg/kg/day
NEL (mouse [11]; [32]): < 375 mg/kg/day
LOAEL (mouse [11]; [33]): > 750 mg/kg/day
NOAEL (mouse [11]; [33]): ≥ 750 mg/kg/day
